The source of these data is paper PMC8583417, “Evaluation of the Antimicrobial Efficacy of N-Acetyl-L-Cysteine, Rhamnolipids, and Usnic Acid—Novel Approaches to Fight Food-Borne Pathogens” (International Journal of Molecular Sciences, 2021).

Converted amounts (≈) assume the structure as drawn.

For assay [1], the system named is preformed biofilms of Gram-negative bacteria. Kind of assay: Inhibition of further growth of biofilm cells, summary over strains. The assay is classed as cell-based. Here is the method:
(§1) The determination of MICs was performed according to Chlumsky et al.. Briefly, 96-well flat-bottomed microtiter plates were inoculated with 75 µL (for biofilm formation) or 100 µL (for preformed biofilm) of bacterial suspension (A625nm 0.08 to 0.1) in technical triplicates and were then carefully mixed with the dilution series of the test substances (24 h cultivation at 25 °C for S. Infantis, 37 °C for other strains) or were directly cultivated to preform biofilms (18 h). For a positive control of bacterial growth, the inoculum was mixed with a pure sterile medium. Furthermore, the sterile medium was included in the plate as a marker of potential microbial contamination. To evaluate planktonic cells growth (MICPC80) and further growth of biofilm cells (MICBC80), the optical density of the content of the microtiter plates was measured spectrophotometrically at 625 nm before and after 24 h (for biofilm formation) of cultivation or before and after additional 20 h incubation with the tested compound (for preformed biofilm). […] To evaluate the inhibition of biofilm formation (MICBF80) and reduction in preformed biofilms (MICBR80), biomass was quantified using crystal violet staining, and its metabolic activity (MICBM80 and MICMPB80) was estimated by using the MTT (thiazyl tetrazolium bromide, Sigma-Aldrich, USA) reduction assay, both measured spectrophotometrically at 595 nm. […]

The test system is the same in assay [2]. Kind of assay: Inhibition of metabolic activity of preformed biofilm, summary over strains. The class given is cell-based. Here is the method: as §1
In another assay the test system is Gram-negative bacteria. Description: Reduction of preformed biofilm, summary over strains. The class given is cell-based. Here is the method: as §1
A further assay concerns Gram-positive bacteria. Described as above. The class given is cell-based. To be noted: Gram-positive strains other than L. monocytogenes 164. As for the experimental part: as §1
The subject of a further assay is S. aureus 1945^GFPuvr. Further details: method as in PMID 30151647. As to conditions: cited from earlier work.
A further assay deals with S. aureus 816. Kind of assay: MIC for further growth of biofilm cells, preformed biofilm (A625nm). To be noted: ≥80% inhibition, 18 h preformed biofilm, 20 h with substance. The class given is cell-based, Staphylococcus aureus. As for the experimental part:
Ten concentrations of NAC, RLs, and UA were tested to determine the minimum inhibitory concentration for planktonic growth, and subsequently, the six highest concentrations were applied on preformed biofilms to evaluate the biofilm eradication ability of the compounds. MIC was defined as the lowest substance concentration able to inhibit at least 80% of microbial growth (MICPC80 for planktonic cells, MICBC80 for further growth of biofilm cells), inhibit 80% of metabolic activity (MICBM80 for biofilm metabolic activity, MICMPB80 for metabolic activity of preformed biofilm), prevent biofilm formation by at least 80% (MICBF80 for biofilm formation), or reduce a preformed biofilm by at least 80% (MICBR80 for biofilm reduction). The results of MICs are summarized in Table 1 (planktonic cells) and Table 2 (biofilm-associated cells).
The determination of MICs was performed according to Chlumsky et al.. […] To evaluate planktonic cells growth (MICPC80) and further growth of biofilm cells (MICBC80), the optical density of the content of the microtiter plates was measured spectrophotometrically at 625 nm before and after 24 h (for biofilm formation) of cultivation or before and after additional 20 h incubation with the tested compound (for preformed biofilm). […] To evaluate the inhibition of biofilm formation (MICBF80) and reduction in preformed biofilms (MICBR80), biomass was quantified using crystal violet staining, and its metabolic activity (MICBM80 and MICMPB80) was estimated by using the MTT (thiazyl tetrazolium bromide, Sigma-Aldrich, USA) reduction assay, both measured spectrophotometrically at 595 nm.
All inhibitions were calculated using the formula of Chlumsky et al. below (Equation (1)):(1) A625(595)nm inhibition (%)=A625(595)nm (control) – A625(595)nm(natural substance)/A625(595)nm (control)× 100 where A625(595)nm (control) is the absorbance of bacterial suspension/biofilm itself, and A625(595)nm(natural substance) is the absorbance of the bacterial suspension/biofilm with the added natural substance (NAC, RLs, and UA). […]

Assay [3] relates to Haemophilus influenza, Pseudomonas aeruginosa, and Streptococcus pneumoniae. Further details: method as in PMID 29234086, PMID 31022884, PMID 27492531. As to conditions: clinical pathogens; cited from earlier work.

As for `CC(=O)c1c(O)c(C)c(O)c2c1OC1=CC(=O)C(C(C)=O)C(=O)C12C` (single isomer, unassigned; (+)) [UA, (+)-usnic acid], the “maximum observed inhibition of further growth of biofilm cells” value in assay [1] is given as “up to 61%”. The “maximum observed inhibition of metabolic activity of preformed biofilm” value in assay [2] was “up to 53%”. Besides, the “maximum observed reduction of preformed biofilm” value in the assay on Gram-negative bacteria is “up to 30%”. The “maximum observed reduction of preformed biofilm, range over strains” value with Gram-positive bacteria is on record as 35–72%. Further, the “minimal inhibition concentration, bacterial growth” value in the assay with S. aureus 1945^GFPuvr is listed as 32 µg/mL (≈ 92.9 µM).
With `CC(=O)N[C@@H](CS)C(=O)O` [NAC, N-Acetyl-L-cysteine], the MICBC80 against S. aureus 816 amounted to 3130 µg/mL. Besides, the “MIC against bacterial growth” value in assay [3] was 500 to 2500 µg/mL.
